Laboratory results as given in the supplement of paper PMC10307832.

Tests used:
Experiment in all cases: relative viability (nuclei count vs DMSO), 5 days (fraction); higher = more cells survive
IDH-C35 + Olaparib = compound: Cc1ccccc1C(C(=O)NC1CCCCC1)N(C(=O)Cn1ccnc1C)c1cccc(F)c1 [IDH-C35] + O=C(c1cc(Cc2n[nH]c(=O)c3ccccc23)ccc1F)N1CCN(C(=O)C2CC2)CC1 [Olaparib] (partner 8 µM)
In short: (§1)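 One day after seeding in 1536-well plates, lung cancer cell lines were dosed by pin tool. Dosing was either single-drug or a fixed anchor-drug dose plus five library-drug doses (not always all listed) in √10 steps. After 5 days, nuclei were stained in one fix-and-stain step and counted on 4× images, and relative viability is the nuclei count of treated wells over that of vehicle wells, given as the median of duplicate plates.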

IDH-C35 + Crizotinib = compound: Cc1ccccc1C(C(=O)NC1CCCCC1)N(C(=O)Cn1ccnc1C)c1cccc(F)c1 [IDH-C35] + C[C@@H](Oc1cc(-c2cnn(C3CCNCC3)c2)cnc1N)c1c(Cl)ccc(F)c1Cl [Crizotinib] (partner 1 µM)
In short: as §1

[1] = compound: CC1=C(C(=NN1)C)CC2=C(C3=C(S2)N(C(=O)N(C3=O)C)CC(C)C)C(=O)N4C[C@@H](CO4)O + C[C@]1(O)C[C@@H](c2nc(-c3ccc4ccc(-c5ccccc5)nc4c3)c3c(N)nccn32)C1 [Linsitinib] (partner 1 µM)
In short: as §1

IDH-C35 + Pemetrexed = compound: Cc1ccccc1C(C(=O)NC1CCCCC1)N(C(=O)Cn1ccnc1C)c1cccc(F)c1 [IDH-C35] + Nc1nc2[nH]cc(CCc3ccc(C(=O)N[C@@H](CCC(=O)O)C(=O)O)cc3)c2c(=O)[nH]1 [Pemetrexed] (partner 0.2 µM)
In short: as §1

NCI-H1993
relative viability (IDH-C35 + Olaparib; first compound 0.08 µM): 1.21
relative viability (IDH-C35 + Olaparib; first compound 0.253 µM): 1.13
relative viability (IDH-C35 + Olaparib; first compound 0.8 µM): 1.03
relative viability (IDH-C35 + Olaparib; first compound 2.53 µM): 0.997
relative viability (IDH-C35 + Olaparib; first compound 8 µM): 1.08
relative viability (IDH-C35 + Crizotinib; first compound 0.08 µM): 0.888
relative viability (IDH-C35 + Crizotinib; first compound 0.253 µM): 0.874
relative viability (IDH-C35 + Crizotinib; first compound 0.8 µM): 0.833
relative viability (IDH-C35 + Crizotinib; first compound 2.53 µM): 0.743
relative viability (IDH-C35 + Crizotinib; first compound 8 µM): 0.903
relative viability ([1]; first compound 0.0025 µM): 0.75
relative viability ([1]; first compound 0.007906 µM): 0.678
relative viability ([1]; first compound 0.025 µM): 0.855
relative viability ([1]; first compound 0.07906 µM): 0.781
relative viability ([1]; first compound 0.25 µM): 0.74
relative viability (IDH-C35 + Pemetrexed; first compound 0.08 µM): 0.527
relative viability (IDH-C35 + Pemetrexed; first compound 0.253 µM): 0.628
relative viability (IDH-C35 + Pemetrexed; first compound 0.8 µM): 0.677
relative viability (IDH-C35 + Pemetrexed; first compound 2.53 µM): 0.598
relative viability (IDH-C35 + Pemetrexed; first compound 8 µM): 0.637

NCI-H520
relative viability (IDH-C35 + Olaparib; first compound 0.08 µM): 0.309
relative viability (IDH-C35 + Olaparib; first compound 0.253 µM): 0.284
relative viability (IDH-C35 + Olaparib; first compound 0.8 µM): 0.313
relative viability (IDH-C35 + Olaparib; first compound 2.53 µM): 0.308
relative viability (IDH-C35 + Olaparib; first compound 8 µM): 0.351
relative viability (IDH-C35 + Crizotinib; first compound 0.08 µM): 0.785
relative viability (IDH-C35 + Crizotinib; first compound 0.253 µM): 0.812
relative viability (IDH-C35 + Crizotinib; first compound 0.8 µM): 0.757
relative viability (IDH-C35 + Crizotinib; first compound 2.53 µM): 0.775
relative viability (IDH-C35 + Crizotinib; first compound 8 µM): 0.796
relative viability ([1]; first compound 0.0025 µM): 0.87
relative viability ([1]; first compound 0.007906 µM): 0.902
relative viability ([1]; first compound 0.025 µM): 0.528
relative viability ([1]; first compound 0.07906 µM): 0.409
relative viability ([1]; first compound 0.25 µM): 0.552
relative viability (IDH-C35 + Pemetrexed; first compound 0.08 µM): 0.776
relative viability (IDH-C35 + Pemetrexed; first compound 0.253 µM): 0.548
relative viability (IDH-C35 + Pemetrexed; first compound 0.8 µM): 0.715
relative viability (IDH-C35 + Pemetrexed; first compound 2.53 µM): 0.699
relative viability (IDH-C35 + Pemetrexed; first compound 8 µM): 0.622

NCI-H647
relative viability (IDH-C35 + Olaparib; first compound 0.08 µM): 0.453
relative viability (IDH-C35 + Olaparib; first compound 0.253 µM): 0.516
relative viability (IDH-C35 + Olaparib; first compound 0.8 µM): 0.435
relative viability (IDH-C35 + Olaparib; first compound 2.53 µM): 0.586
relative viability (IDH-C35 + Olaparib; first compound 8 µM): 0.508
relative viability (IDH-C35 + Crizotinib; first compound 0.08 µM): 0.876
relative viability (IDH-C35 + Crizotinib; first compound 0.253 µM): 1.02
relative viability (IDH-C35 + Crizotinib; first compound 0.8 µM): 1.05
relative viability (IDH-C35 + Crizotinib; first compound 2.53 µM): 1.07
relative viability (IDH-C35 + Crizotinib; first compound 8 µM): 0.98
relative viability ([1]; first compound 0.0025 µM): 1.33
relative viability ([1]; first compound 0.007906 µM): 1.37
relative viability ([1]; first compound 0.025 µM): 1.33
relative viability ([1]; first compound 0.07906 µM): 1.24
relative viability ([1]; first compound 0.25 µM): 1.44
relative viability (IDH-C35 + Pemetrexed; first compound 0.08 µM): 0.186
relative viability (IDH-C35 + Pemetrexed; first compound 0.253 µM): 0.161
relative viability (IDH-C35 + Pemetrexed; first compound 0.8 µM): 0.175
relative viability (IDH-C35 + Pemetrexed; first compound 2.53 µM): 0.171
relative viability (IDH-C35 + Pemetrexed; first compound 8 µM): 0.167

NCI-H1792
relative viability (IDH-C35 + Olaparib; first compound 0.08 µM): 0.508
relative viability (IDH-C35 + Olaparib; first compound 0.253 µM): 0.444
relative viability (IDH-C35 + Olaparib; first compound 0.8 µM): 0.417
relative viability (IDH-C35 + Olaparib; first compound 2.53 µM): 0.474
relative viability (IDH-C35 + Olaparib; first compound 8 µM): 0.362
relative viability (IDH-C35 + Crizotinib; first compound 0.08 µM): 0.972
relative viability (IDH-C35 + Crizotinib; first compound 0.253 µM): 0.949
relative viability (IDH-C35 + Crizotinib; first compound 0.8 µM): 0.94
relative viability (IDH-C35 + Crizotinib; first compound 2.53 µM): 1.01
relative viability (IDH-C35 + Crizotinib; first compound 8 µM): 0.971
relative viability ([1]; first compound 0.0025 µM): 0.722
relative viability ([1]; first compound 0.007906 µM): 0.541
relative viability ([1]; first compound 0.025 µM): 0.487
relative viability ([1]; first compound 0.07906 µM): 0.402
relative viability ([1]; first compound 0.25 µM): 0.344
relative viability (IDH-C35 + Pemetrexed; first compound 0.08 µM): 1.03
relative viability (IDH-C35 + Pemetrexed; first compound 0.253 µM): 0.711
relative viability (IDH-C35 + Pemetrexed; first compound 0.8 µM): 0.721
relative viability (IDH-C35 + Pemetrexed; first compound 2.53 µM): 0.899
relative viability (IDH-C35 + Pemetrexed; first compound 8 µM): 0.919

SK-LU-1
relative viability (IDH-C35 + Olaparib; first compound 0.08 µM): 0.422
relative viability (IDH-C35 + Olaparib; first compound 0.253 µM): 0.399
relative viability (IDH-C35 + Olaparib; first compound 0.8 µM): 0.396
relative viability (IDH-C35 + Olaparib; first compound 2.53 µM): 0.484
relative viability (IDH-C35 + Olaparib; first compound 8 µM): 0.448
relative viability (IDH-C35 + Crizotinib; first compound 0.08 µM): 0.881
relative viability (IDH-C35 + Crizotinib; first compound 0.253 µM): 0.797
relative viability (IDH-C35 + Crizotinib; first compound 0.8 µM): 0.948
relative viability (IDH-C35 + Crizotinib; first compound 2.53 µM): 0.904
relative viability (IDH-C35 + Crizotinib; first compound 8 µM): 0.881
relative viability ([1]; first compound 0.0025 µM): 0.86
relative viability ([1]; first compound 0.007906 µM): 0.712
relative viability ([1]; first compound 0.025 µM): 0.711
relative viability ([1]; first compound 0.07906 µM): 0.774
relative viability ([1]; first compound 0.25 µM): 0.731
relative viability (IDH-C35 + Pemetrexed; first compound 0.08 µM): 1.06
relative viability (IDH-C35 + Pemetrexed; first compound 0.253 µM): 0.983
relative viability (IDH-C35 + Pemetrexed; first compound 0.8 µM): 1.03
relative viability (IDH-C35 + Pemetrexed; first compound 2.53 µM): 1.05
relative viability (IDH-C35 + Pemetrexed; first compound 8 µM): 0.887

NCI-H2009
relative viability (IDH-C35 + Olaparib; first compound 0.08 µM): 0.679
relative viability (IDH-C35 + Olaparib; first compound 0.253 µM): 0.74
relative viability (IDH-C35 + Olaparib; first compound 0.8 µM): 0.613
relative viability (IDH-C35 + Olaparib; first compound 2.53 µM): 0.655
relative viability (IDH-C35 + Olaparib; first compound 8 µM): 0.669
relative viability (IDH-C35 + Crizotinib; first compound 0.08 µM): 0.992
relative viability (IDH-C35 + Crizotinib; first compound 0.253 µM): 1
relative viability (IDH-C35 + Crizotinib; first compound 0.8 µM): 1.08
relative viability (IDH-C35 + Crizotinib; first compound 2.53 µM): 0.971
relative viability (IDH-C35 + Crizotinib; first compound 8 µM): 0.995
relative viability ([1]; first compound 0.0025 µM): 1.24
relative viability ([1]; first compound 0.007906 µM): 1.22
relative viability ([1]; first compound 0.025 µM): 1.19
relative viability ([1]; first compound 0.07906 µM): 1.27
relative viability ([1]; first compound 0.25 µM): 1.26
relative viability (IDH-C35 + Pemetrexed; first compound 0.08 µM): 1.02
relative viability (IDH-C35 + Pemetrexed; first compound 0.253 µM): 0.968
relative viability (IDH-C35 + Pemetrexed; first compound 0.8 µM): 0.936
relative viability (IDH-C35 + Pemetrexed; first compound 2.53 µM): 1.01
relative viability (IDH-C35 + Pemetrexed; first compound 8 µM): 0.936

LOU-NH91
relative viability (IDH-C35 + Olaparib; first compound 0.08 µM): 0.949
relative viability (IDH-C35 + Olaparib; first compound 0.253 µM): 0.976
relative viability (IDH-C35 + Olaparib; first compound 0.8 µM): 0.888
relative viability (IDH-C35 + Olaparib; first compound 2.53 µM): 0.852
relative viability (IDH-C35 + Olaparib; first compound 8 µM): 0.919
relative viability (IDH-C35 + Crizotinib; first compound 0.08 µM): 0.741
relative viability (IDH-C35 + Crizotinib; first compound 0.253 µM): 0.754
relative viability (IDH-C35 + Crizotinib; first compound 0.8 µM): 0.722
relative viability (IDH-C35 + Crizotinib; first compound 2.53 µM): 0.743
relative viability (IDH-C35 + Crizotinib; first compound 8 µM): 0.751
relative viability ([1]; first compound 0.0025 µM): 0.958
relative viability ([1]; first compound 0.007906 µM): 0.843
relative viability ([1]; first compound 0.025 µM): 1.06
relative viability ([1]; first compound 0.07906 µM): 1.12
relative viability ([1]; first compound 0.25 µM): 1.02
relative viability (IDH-C35 + Pemetrexed; first compound 0.08 µM): 0.422
relative viability (IDH-C35 + Pemetrexed; first compound 0.253 µM): 0.393
relative viability (IDH-C35 + Pemetrexed; first compound 0.8 µM): 0.425
relative viability (IDH-C35 + Pemetrexed; first compound 2.53 µM): 0.347
relative viability (IDH-C35 + Pemetrexed; first compound 8 µM): 0.361

NCI-H2405
relative viability (IDH-C35 + Olaparib; first compound 0.08 µM): 0.85
relative viability (IDH-C35 + Olaparib; first compound 0.253 µM): 0.858
relative viability (IDH-C35 + Olaparib; first compound 0.8 µM): 0.825
relative viability (IDH-C35 + Olaparib; first compound 2.53 µM): 0.98
relative viability (IDH-C35 + Olaparib; first compound 8 µM): 0.884
relative viability (IDH-C35 + Crizotinib; first compound 0.08 µM): 0.837
relative viability (IDH-C35 + Crizotinib; first compound 0.253 µM): 0.841
relative viability (IDH-C35 + Crizotinib; first compound 0.8 µM): 0.852
relative viability (IDH-C35 + Crizotinib; first compound 2.53 µM): 0.829
relative viability (IDH-C35 + Crizotinib; first compound 8 µM): 0.797
relative viability ([1]; first compound 0.0025 µM): 0.972
relative viability ([1]; first compound 0.007906 µM): 0.902
relative viability ([1]; first compound 0.07906 µM): 0.881
relative viability ([1]; first compound 0.25 µM): 0.73
relative viability (IDH-C35 + Pemetrexed; first compound 0.08 µM): 1.05
relative viability (IDH-C35 + Pemetrexed; first compound 0.253 µM): 1.07
relative viability (IDH-C35 + Pemetrexed; first compound 0.8 µM): 0.93
relative viability (IDH-C35 + Pemetrexed; first compound 2.53 µM): 1.24
relative viability (IDH-C35 + Pemetrexed; first compound 8 µM): 1.08
